Measurements from article PMC7402526, “An in vitro quantitative systems pharmacology approach for deconvolving mechanisms of drug-induced, multilineage cytopenias” (PLoS Computational Biology, 2020).

Assays:
Assay type in all cases: cell-based, human
[1] = test system: hematopoietic stem cells (HSCs); assay: Multi-lineage toxicity assay (MLTA), HSCs: concentration-response and QSP model fit; conditions: Homo sapiens, Hematopoietic stem cell; for Emax: 144 h, parameter from QSP model fitting, read-out: Emax_drug_HSC; for EC50: QSP model parameter, sheet EC50_parameters, HSCs
Procedure: (§1) A custom optimized cytokine cocktail was developed using commercially available cytokines (Peprotech, New Jersey) to facilitate simultaneous multi-lineage differentiation and self-renewal of freeze-thawed primary human bone marrow-derived CD34+ cells in SFEM II media (cells and media from StemCell Technologies, Vancouver). Cultures were carried out in ultra-low attachment 96-well plates (Corning, New York) with test article added on day 0 and cultured at 37°C, 85% relative humidity, and 5% CO2 for six days before interrogating drug impact via 17-parameter flow cytometry.
(§2) The flow cytometry panel used to define hematopoietic subsets was composed of CD34-PECy7, CD90-PECY5, CD38-AF488, CD371-PE, CD45Ra-BV421, CD14-BV605, CD42b-AF647, CD10-PEDazzle594, CD235a-PerCPCy5.5 (BioLegend, California), CD15-BUV395, CD41a-APCH7, CD71-BV786 (BD Biosciences, California), and DAPI for dead cell exclusion (ThermoFisher, California). In short, Day 6 cells were harvested, FcR-blocked (FcR binding inhibitor, ThermoFisher), surface-stained, then analyzed in a buffer containing TruCount Control Beads using a BD LSR Fortessa SORP fitted with a high-throughput sampler (BD Biosciences, California). Data was analyzed in Diva 6.0.2 and exported to CSV where after all cell data was transformed to cell per mL then normalized on a per-donor basis to untreated control wells to determine drug impact.
(§3) Donor material was collected and cultured as described above. The number of replicate donor samples per drug ranged from 2–7 and varied per drug (S1 Table). Drug treatment was added at time 0 and cells were maintained in culture for 6 days. Concentrations tested for each drug compound are contained in S1 Table. Concentrations were selected to span a range that is clinically useful. Following treatment, cell populations were measured using flow cytometry. We extracted cell counts from flow cytometry data, normalized to bead counts, and corrected for well volume.
(§4) Each well was normalized to the average of six vehicle control wells. For drugs that were tested across multiple runs of the assay, vehicle-normalized donor data were pooled, and we used the average of these pooled data for further modeling. Normalized data used as model inputs are included in S1 Table.
(§5) We implemented drug effects using an Emax model for the drug’s effect on each cell type. The 13 maximum effect parameters (EmaxT,C) are unitless and can vary between 0 and 2 and where a subscript, C, represents one of the previously described 13 cell types. We adapted a traditional Emax model using the equations below. We interpreted EmaxT values less than or equal to one as anti-proliferative, and EmaxT values greater than one as indicating a cell-killing mechanism in addition to anti-proliferation. The relationships for these effects are included in the model using the following equations. Eq 2 describes the drug anti-proliferative effect in the net proliferation rate for a given cell type. Eq 3 describes the cell-killing EmaxCK effect.
(§6) Towards the estimation of mechanistic parameters, we considered different formulations: (a) weighting the objective value to prioritize fitting dead cells and (b) using regularization methodology to encourage a parsimonious solution. We assessed the contributions of these formulations using mean-squared error and goodness of fit plots for drugs with known mechanisms. […] Further, we used L1 regularization to penalize parameters […] to help identify a parsimonious set of parameters to explain drug effects.

[2] = test system: multi-potent progenitors (MPPs); assay: MLTA, MPPs: concentration-response and QSP model fit; conditions: Homo sapiens; for Emax: 144 h, parameter from QSP model fitting, read-out: Emax_drug_MPP; for EC50: QSP model parameter, sheet EC50_parameters, MPPs
Procedure: as §1, §2, §3, §4, §5, §6

[3] = test system: granulocyte-macrophage progenitor (GMPs); assay: MLTA, GMPs: concentration-response and QSP model fit; conditions: Homo sapiens; QSP model parameter, sheet EC50_parameters; GMPs
Procedure: as §1, §2, §3, §4, §5, §6

[4] = test system: granulocyte progenitor (Gran-lin prog); assay: MLTA, GranP: concentration-response and QSP model fit; conditions: Homo sapiens; for Emax: 144 h, parameter from QSP model fitting, read-out: Emax_drug_GranP; for EC50: QSP model parameter, sheet EC50_parameters, GranP, read-out: EC50GranP
Procedure: as §1, §2, §3, §4, §5, §6

[5] = test system: granulocytes (Gran-lin); assay: MLTA, Gran: concentration-response and QSP model fit; conditions: Homo sapiens; for Emax: 144 h, parameter from QSP model fitting, read-out: Emax_drug_Gran; for EC50: QSP model parameter, sheet EC50_parameters, Gran
Procedure: as §1, §2, §3, §4, §5, §6

[6] = test system: monocyte progenitors (monocyte prog); assay: MLTA, MonoP: concentration-response and QSP model fit; conditions: Homo sapiens, Monocyte; for Emax: 144 h, parameter from QSP model fitting, read-out: Emax_drug_MonoP; for EC50: QSP model parameter, sheet EC50_parameters, MonoP, read-out: EC50MonoP
Procedure: as §1, §2, §3, §4, §5, §6

[7] = test system: monocytes (monocyte-lin); assay: MLTA, Mono: concentration-response and QSP model fit; conditions: Homo sapiens, Monocyte; for Emax: 144 h, parameter from QSP model fitting, read-out: Emax_drug_Mono; for EC50: QSP model parameter, sheet EC50_parameters, Mono
Procedure: as §1, §2, §3, §4, §5, §6

[8] = test system: neutrophils (neutrophil-lin); assay: MLTA, Neut: concentration-response and QSP model fit; conditions: Homo sapiens, Neutrophil; for Emax: 144 h, parameter from QSP model fitting, read-out: Emax_drug_Neut; for EC50: QSP model parameter, sheet EC50_parameters, Neut
Procedure: as §1, §2, §3, §4, §5, §6

[9] = test system: early erythroid cells (Eryth I); assay: MLTA, ErythI: concentration-response and QSP model fit; conditions: Homo sapiens; for Emax: 144 h, parameter from QSP model fitting, read-out: Emax_drug_ErythroidI; for EC50: QSP model parameter, sheet EC50_parameters, Erythroid I, read-out: EC50ErythroidI
Procedure: as §1, §2, §3, §4, §5, §6

[10] = test system: late erythroid cells (Eryth II); assay: MLTA, ErythII: concentration-response and QSP model fit; conditions: Homo sapiens; for Emax: 144 h, parameter from QSP model fitting, read-out: Emax_drug_ErythroidII; for EC50: QSP model parameter, sheet EC50_parameters, Erythroid II, read-out: EC50ErythroidII
Procedure: as §1, §2, §3, §4, §5, §6

[11] = test system: MK cells (MK-lin); assay: MLTA, MK: concentration-response and QSP model fit; conditions: Homo sapiens; for Emax: 144 h, parameter from QSP model fitting, read-out: Emax_drug_MK; for EC50: QSP model parameter, sheet EC50_parameters, MK
Procedure: as §1, §2, §3, §4, §5, §6

[12] = test system: lymphocyte progenitors (LymP); assay: MLTA, LymP: concentration-response and QSP model fit; conditions: Homo sapiens, Lymphocyte; for Emax: 144 h, parameter from QSP model fitting, read-out: Emax_drug_LymP; for EC50: QSP model parameter, sheet EC50_parameters, LymP
Procedure: as §1, §2, §3, §4, §5, §6

[13] = test system: B cells (B-lin); assay: MLTA, B-lin: concentration-response and QSP model fit; conditions: Homo sapiens, B-cell; for Emax: 144 h, parameter from QSP model fitting, read-out: Emax_drug_B; for EC50: QSP model parameter, sheet EC50_parameters, B
Procedure: as §1, §2, §3, §4, §5, §6

| EC50 [2] [nM] | EC50 [3] [nM] | EC50 [4] [nM] | EC50 [5] [nM] | EC50 [6] [nM] | EC50 [7] [nM] | EC50 [8] [nM] | EC50 [9] [nM] | EC50 [10] [nM] | Structure (SMILES) | Emax [1] [%] | EC50 [1] [nM] | Emax [2] [%] | Emax [4] [%] | Emax [5] [%] | Emax [6] [%] | Emax [7] [%] | Emax [8] [%] | Emax [9] [%] | Emax [10] [%] | Emax [11] [%] | also measured |
| --- | --- | --- | --- | --- | --- | --- | --- | --- | --- | --- | --- | --- | --- | --- | --- | --- | --- | --- | --- | --- | --- |
| 122 | 3.37 | 6.96 | 32.7 | 28.7 | 63.2 | 6.99 | 4.31 | 0.101 | Nc1ccn([C@@H]2O[C@H](CO)[C@@H](O)[C@@H]2O)c(=O)n1 [Cytarabine] | 61.3 | 17.4 | 0.0181 | 104 | 0.0324 | 0.03 | 20.1 | 18.3 | 204 | 2.92 | 42.8 | EC50 [11]: 6.86 nM; Emax [12]: 0.032%; EC50 [12]: 69.7 nM; Emax [13]: 83.9%; EC50 [13]: 7.35 nM |
| 786 | 3060 | 937 | 3180 | 1050 | 292 | 2690 | 76.9 | 262 | Nc1cccc2c1CN(C1CCC(=O)NC1=O)C2=O (centres unmarked) [Lenalidomide] | 1.33e-06 | 1130 | 4.52e-05 | 5.98e-05 | 9.94e-05 | 3.83e-05 | 3.68e-06 | 4.07e-06 | 1.17e-05 | 1.48e-06 | 2.23e-06 | EC50 [11]: 763 nM; Emax [12]: 0.0004%; EC50 [12]: 26.7 nM; Emax [13]: 1.49e-05%; EC50 [13]: 1000 nM |
